Entries after “also recorded” stand apart in the source; their conditions may differ. Square brackets hold non-standard residues; d marks the D form. Peptide text beside a SMILES is read from it. Bpa = N[C@@H](Cc1ccc(C(=O)c2ccccc2)cc1)C(=O)O; Phe(4-NH2) = Nc1ccc(C[C@H](N)C(=O)O)cc1; hArg = N=C(N)NCCCC[C@H](N)C(=O)O
Assays:
Assay type in all cases: cell-based
[1] = tested on: AChE activity, PC12 cells; conditions: for protection against T30-induced AChE activity: T30 1 μM combined with blocker
Description: AChE activity was measured using the Ellman reagent that measures the presence of thiol groups as a result of AChE activity. In the case of the G4 experiment, AChE (G4) activity was tested alone and also together with either NBP14 or Tri peptides. PC12 cells were plated the day before the experiment as for the cell viability assay. Cells were treated with T30 (1 μM) alone or combined with NBP14 or Tri peptide (0.5 μM). After treatment, supernatant (perfusate) of each treatment was collected and 25 μL from is each condition were added to a new flat bottomed 96 well plate followed by the addition of 175 μl of Ellman reagent (Solution A: KH2PO4 139 mM and K2HPO4 79.66 mM, pH 7.0; solution B (substrate): Acetylthiocholine Iodide 11.5 mM; Solution C (Reagent): 5,5′-dithiobis (2-nitrobenzoic acid) 8 mM and NaHCO15 mM). The Ellman reagent was prepared as a mixture of the 3 solutions in a ratio 33(A):3(B):4(C). Absorbance measurements were taken for an interval of 60 minutes across experiments at 405 nm in a Vmax plate reader (Molecular devices, Wokingham, UK).
(§1) In each of the different cell techniques, the statistics analysis was performed with the average of the percentage values of 3 or more experiments. Comparisons between multiple treatment groups and the same control were performed by one-way analysis of variance (ANOVA) and Tukey's post-hoc tests using GraphPAD Instat (GraphPAD software, San Diego, Calif.). Statistical significance was taken at a p value<0.05.

[2] = tested on: alpha7 nicotinic receptors, PC12 cells; assay: Calcium fluorometry (Fluo-8), PNU282987-induced calcium influx in PC12 cells; conditions: PNU282987 1 μM; for protection against T30-induced calcium influx: T30 combined with blocker
Description: PC12 cells were plated in 200 μl of Dulbecco's Modified Eagle's medium (DMEM) plus 2 mM of L-glutamine medium the day before the experiment in 96 well plates. On the day of the experiment, the Fluo-8 solution (Abcam) was prepared as described by the provider by adding 20 μl of Fluo-8 in the assay buffer that contains 9 ml of Hank's Balanced Salt Solution (HBSS) and 1 ml of pluronic F127 Plus. Subsequently, 100 μl of growth medium was removed and 100 μl of Fluo-8 solution were added. Treatments with T30 in conjunction with NBP14 or Tri peptides were added and incubated for 30 minutes in the incubator and 30 minutes room temperature. After 1 h, the plate was placed in the fluorescence plate reader (Fluostar, Optima, BMG Labtech, Ortenberg, Germany). Before reading the fluorescence, PNU282987 1 μM, an alpha7 specific agonist of the nicotinic receptors, was prepared and placed in the Fluostar injector. For each well, the reading was formed by a basal fluorescence reading followed by PNU282987 injection that induced an increase of calcium via nicotinic receptors.
as §1

[3] = tested on: rat basal forebrain; assay: voltage-sensitive dye imaging (VSDI) on brain slices; conditions: for magnitude (summed fluorescence) of evoked responses, compound alone: 4 μM in perfusate, no T30, rat basal forebrain slices
Description: Male Wistar rats (14 days old) were anaesthetised using isoflurane ([…], 100% w/w). Isoflurane was applied to the cotton bed at the bottom of an anaesthetic chamber (glass box 20×15×15 cm) where rats were then placed for approximately 45 s until complete anaesthesia was reached. The hind paw of each anaesthetised rat was pinched to check for the appropriate depth of anaesthesia. Upon confirmation of anaesthesia, rats were quickly decapitated, with the brain being quickly removed and immersed in ice cold oxygenated ‘slicing’ artificial cerebrospinal fluid (aCSF in mmol: 120 NaCl, 5 KCL, 20 NaHCO3, 2.4 CaCl2 2 MgSO4, 1.2 KH2PO4, 10 glucose, 6.7 HEPES salt and 3.3 HEPES acid; pH=7.1). Coronal slices (400 μm thick) were then taken from a block of brain containing the basal forebrain, namely the MS-dBB complex (between +9.20 and +9.48 mm Interaural and +0.48 and +0.2 mm Bregma, FIG. 4A) and the somatosensory barrel field cortex (SiBF, between +8.08 and +7.20 mm Interaural and −0.92 mm and −1.80 mm Bregma) (Paxinos and Watson, 1998) using a Vibratome (Leica VT1000S). Slices were then transferred to a bubbler pot containing oxygenated aCSF at room temperature (recording aCSF in mmol: 124 NaCl, 5 KCL, 20 NaHCO3, 2.4 CaCl2 2 MgSO4, 1.3 KH2PO4, 10 glucose; pH=7.4) which was identical to that used in VSDI (voltage sensitive dye imaging) recording. Slices were then left for approximately 1-1.5 hours before preparing them for VSD staining.
Slices were placed in a dark, high humidity chamber filled with aCSF bubbled with 95% O2, 5% CO2. Once there, the dye solution (4% 0.2 mM styryl dye pyridinium 4-[2-[6-(dibutylamino)-2-napthalenyl]-ethenyl]-1-(3-sulfopropyl)hydroxide(Di-4-NEPPS), Invitrogen, Paisley, UK in 48% aCSF, 48% foetal bovine serum, 3.5% DMSO and 0.4% cremophore EL) (Tominaga et al., 2000) was applied to the slices for 20-25 minutes before being transferred back to a bubbler pot containing oxygenated aCSF kept at room temperature for 30 minutes.
When starting the VSDI recordings, slices were placed in the recording bath on a small piece of filter paper to allow the flow of oxygenated aCSF on the underside of the slice and in order to keep it alive. The slice was then weighed down by a home-made plastic grid that was placed on top of the slice. The perfusing bath solution was heated to 30±1° C. by a stage heater. A concentric bipolar stimulating electrode (FHC, Maine, USA) was placed in the ventral diagonal band of the basal forebrain with stimulation being set to 30V. For the acquisition of VSD data, 2 dimensional images, equivalent to 88×60 pixels, were recorded using the MiCamo2 High Resolution camera (Brain Vision, Japan) with BV_Analyze imaging software. Acquisition of images was coupled to Spike2 V4.23 software (CED Ltd, Cambridge, UK) in order to align the image capture with the stimulation protocol (every 28 s with 30 repeats) via the Micro 1401 MkII. (CED Ltd, Cambridge, UK). Light was generated using an Osram halogen xenophot 64634 HLX EFR Display/Optic lamp and was filtered to emit green (530±10 nm) light using a MHF-G150LR (Moritex Corporation) coupled to the MiCamo2 High resolution imaging system and filtered the emitted fluorescence through a >590 nm high pass filter.
All drug and peptide stocks were prepared in frozen aliquots prior to experiments. For the production of perfusion solutions, stock solutions were thawed and added to recording aCSF as appropriate and bath applied at a constant rate of 1.5 ml/min perfusion using the Minipulse 3 peristaltic pump (Gilson Scientific Ltd., Bedfordshire, UK).

[4] = tested on: astroglia; assay: cell proliferation assay (trophic-toxic effects); conditions: for toxic effect in cell proliferation assay: high concentration, 10 μM
[5] = co-perfusion 4 μM blocker with 2 uM T30

## CC(=O)N[C@@H](Cc1ccc2ccccc2c1)C(=O)N[C@@H](Cc1ccc(N)cc1)C(=O)N[C@@H](Cc1c[nH]c2ccccc12)C(N)=O [Tri02] (HELM PEPTIDE1{[ac].[O=C([C@H](Cc1ccc2ccccc2c1)N[*:1])[*:2]].[Nc1ccc(C[C@H](N[*:1])C(=O)[*:2])cc1].W.[am]}$$$$V2.0)
[1]
  protection against T30-induced AChE activity: protects against the toxic effects of T30
[2]
  protection against T30-induced calcium influx: protects against the toxic effects of T30
[3]
  magnitude (summed fluorescence) of evoked responses, compound alone: small alterations
[3]; listed as Triol
  magnitude (summed fluorescence) of evoked responses, compound alone: recapitulates results seen with application of 4 μM NBP14
[3]; [5]
  blocking of T30-induced effects on basal forebrain activity: not found to protect against T30-induced deviations from baseline; also recorded: some efficacy in blocking those T30-induced deviation

## AEFHRWSSYMVHWK (listed as Homo sapiens) [Compound T14, toxic 14 amino acid peptide from the C-terminus of acetylcholinesterase]
[4]; 1 pM peptide
  cell proliferation, trophic effect on astroglia: 96±5%
[4]; 10 pM peptide
  cell proliferation, trophic effect on astroglia: 121±8%
[4]
  toxic effect in cell proliferation assay: equal toxic effects

## KAEFHRWSSYMVHWKNQFDHYSKQDRCSDL (listed as Homo sapiens) [Compound T30, Acetylcholinesterase (AChE) C-terminus 30 amino acid peptide]
[4]; 1 pM peptide
  cell proliferation, trophic effect on astroglia: 120±4%
[4]; 10 pM peptide
  cell proliferation, trophic effect on astroglia: 135±9%
[4]
  toxic effect in cell proliferation assay: equal toxic effects
[1]; peptide alone, 1 μM
  AChE activity: increases
[2]; peptide alone, 1 μM
  calcium influx: increases
[3]; T30 2 uM, basal forebrain of p14 rats
  effect of T30 alone on evoked VSDI signal: greatest deviation; also recorded: net inhibition

## c[AEFHRWSSYMVHWK] (head-to-tail cyclised; listed as Homo sapiens) [NBP14]
[1]
  protection against T30-induced AChE activity: protects against these toxic effects
[2]
  protection against T30-induced calcium influx: protects against these toxic effects
[3]
  magnitude (summed fluorescence) of evoked responses, compound alone: small, non-significant alterations
[3]; [5]
  blocking of T30-induced effects on basal forebrain activity: totally block the T30-induced effects

## CC(=O)N[C@@H](Cc1ccc(C(=O)c2ccccc2)cc1)C(=O)N[C@@H](CCCCNC(=N)N)C(=O)N[C@@H](Cc1ccc(N)cc1)C(N)=O [Tri04] (Ac-[Bpa]-[hArg]-[Phe(4-NH2)]-NH2)
[2]
  protection against T30-induced calcium influx: protects the toxic effects of T30 by reducing calcium influx
[3]; co-perfusion 2 μM blocker with 2 μM T30, n=29
  blocking of T30-induced effects on basal forebrain activity: significant effect on basal forebrain population activity; also recorded: reversal of the inhibitory effect of T30; also recorded: increase in network activity; also recorded: protective role
[3]; [5]
  blocking of T30-induced effects on basal forebrain activity: totally block the T30-induced effects; also recorded: recapitulates results previously seen with the application of 4 μM NBP14; also recorded: significant effect reversing T30 activity
